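GI50 = concentration required for 50% inhibition of growth. Definition used: TGI = concentration required for complete inhibition of growth.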
Key:
Experiment in all cases: NCI anticancer screen, dose series, 384-well format
CCRF-CEM leukemia = system: CCRF-CEM leukemia
SN12C renal = system: SN12C renal
HS 578T breast = system: HS 578T breast
EKVX NSCLC = system: EKVX NSCLC
OVCAR-4 ovarian = system: OVCAR-4 ovarian
HL-60(TB) leukemia = system: HL-60(TB) leukemia
CAKI-1 renal = system: CAKI-1 renal
M14 melanoma = system: M14 melanoma
DU-145 prostate = system: DU-145 prostate
UACC-62 melanoma = system: UACC-62 melanoma
786-0 renal = system: 786-0 renal
BT-549 breast = system: BT-549 breast
HCT-15 colon = system: HCT-15 colon
UO-31 renal = system: UO-31 renal
SNB-75 CNS = system: SNB-75 CNS
T-47D breast = system: T-47D breast
ACHN renal = system: ACHN renal
TK-10 renal = system: TK-10 renal
MDA-MB-435 melanoma = system: MDA-MB-435 melanoma
MALME-3M melanoma = system: MALME-3M melanoma
SK-MEL-5 melanoma = system: SK-MEL-5 melanoma
NCI-H23 lung = system: NCI-H23 lung
U251 glioblastoma = system: U251 glioblastoma
NCI-H322M lung = system: NCI-H322M lung
HOP-92 NSCLC = system: HOP-92 NSCLC
KM12 colon = system: KM12 colon
A549 NSCLC = system: A549 NSCLC
SNB-19 CNS = system: SNB-19 CNS
LOX IMVI melanoma = system: LOX IMVI melanoma
NCI-H226 lung = system: NCI-H226 lung
SF-268 CNS = system: SF-268 CNS
COLO 205 colon = system: COLO 205 colon
OVCAR-8 ovarian = system: OVCAR-8 ovarian
SF-295 CNS = system: SF-295 CNS
SF-539 CNS = system: SF-539 CNS
NCI/ADR-RES ovarian = system: NCI/ADR-RES ovarian
SK-OV-3 ovarian = system: SK-OV-3 ovarian
A498 renal = system: A498 renal
MOLT-4 leukemia = system: MOLT-4 leukemia
SK-MEL-28 melanoma = system: SK-MEL-28 melanoma
OVCAR-5 ovarian = system: OVCAR-5 ovarian
OVCAR-3 ovarian = system: OVCAR-3 ovarian
UACC-257 melanoma = system: UACC-257 melanoma
SR leukemia = system: SR leukemia
IGROV1 ovarian = system: IGROV1 ovarian
MCF7 breast = system: MCF7 breast
RXF 393 renal = system: RXF 393 renal
MDA-MB-231 breast = system: MDA-MB-231 breast
HT29 colon = system: HT29 colon
K-562 leukemia = system: K-562 leukemia
SW-620 colon = system: SW-620 colon
MDA-MB-468 breast = system: MDA-MB-468 breast
RPMI-8226 leukemia = system: RPMI-8226 leukemia
HCC-2998 colon = system: HCC-2998 colon
HOP-62 NSCLC = system: HOP-62 NSCLC
NCI-H460 NSCLC = system: NCI-H460 NSCLC
PC-3 prostate = system: PC-3 prostate
NCI-H522 lung = system: NCI-H522 lung

Question: Which GI50 (CCRF-CEM leukemia) does the source give for `O=C(NOCC1CC1)c1ccc(F)c(F)c1Nc1ccc(I)cc1Cl` here?
Answer: 1800 nM

Question: What about the TGI (CCRF-CEM leukemia) of the same compound?
Answer: 3370 nM

Question: And the GI50 (SN12C renal)?
Answer: 1040 nM

Question: And the TGI (SN12C renal)?
Answer: 4430 nM

Question: What about the GI50 (HS 578T breast) of the same compound?
Answer: 1840 nM

Question: And the TGI (HS 578T breast)?
Answer: 6160 nM

Question: And the GI50 (EKVX NSCLC)?
Answer: 1720 nM

Question: What about the TGI (EKVX NSCLC) of the same compound?
Answer: 4290 nM

Question: What about the GI50 (OVCAR-4 ovarian) of the same compound?
Answer: 1490 nM

Question: What about the TGI (OVCAR-4 ovarian) of the same compound?
Answer: 5030 nM

Question: What about the GI50 (HL-60(TB) leukemia) of the same compound?
Answer: 37.5 nM

Question: What about the TGI (HL-60(TB) leukemia) of the same compound?
Answer: 808 nM

Question: And the GI50 (CAKI-1 renal)?
Answer: 1030 nM

Question: And the TGI (CAKI-1 renal)?
Answer: 3070 nM

Question: And the GI50 (M14 melanoma)?
Answer: 34.9 nM

Question: What about the TGI (M14 melanoma) of the same compound?
Answer: 176 nM

Question: And the GI50 (DU-145 prostate)?
Answer: 3490 nM

Question: What about the TGI (DU-145 prostate) of the same compound?
Answer: 15300 nM

Question: And the GI50 (UACC-62 melanoma)?
Answer: 40 nM

Question: And the TGI (UACC-62 melanoma)?
Answer: 259 nM

Question: What about the GI50 ([…]-0 renal) of the same compound?
Answer: 1860 nM

Question: What about the TGI (786-0 renal) of the same compound?
Answer: 9930 nM

Question: And the GI50 (BT-549 breast)?
Answer: 2730 nM

Question: What about the TGI (BT-549 breast) of the same compound?
Answer: 14800 nM

Question: What about the GI50 (HCT-15 colon) of the same compound?
Answer: 2290 nM

Question: What about the TGI (HCT-15 colon) of the same compound?
Answer: 11500 nM

Question: What about the GI50 (UO-31 renal) of the same compound?
Answer: 2340 nM

Question: What about the TGI (UO-31 renal) of the same compound?
Answer: > 100000 nM

Question: And the GI50 (SNB-75 CNS)?
Answer: 1880 nM

Question: And the TGI (SNB-75 CNS)?
Answer: 9450 nM

Question: What about the GI50 (T-47D breast) of the same compound?
Answer: 2350 nM

Question: What about the TGI (T-47D breast) of the same compound?
Answer: 7060 nM

Question: What about the GI50 (ACHN renal) of the same compound?
Answer: 1660 nM

Question: What about the TGI (ACHN renal) of the same compound?
Answer: 15400 nM

Question: What about the GI50 (TK-10 renal) of the same compound?
Answer: 1910 nM

Question: What about the TGI (TK-10 renal) of the same compound?
Answer: 5840 nM

Question: What about the GI50 (MDA-MB-435 melanoma) of the same compound?
Answer: 110 nM

Question: And the TGI (MDA-MB-435 melanoma)?
Answer: 6030 nM

Question: What about the GI50 (MALME-3M melanoma) of the same compound?
Answer: 17 nM

Question: And the TGI (MALME-3M melanoma)?
Answer: 44.8 nM

Question: What about the GI50 (SK-MEL-5 melanoma) of the same compound?
Answer: 104 nM

Question: And the TGI (SK-MEL-5 melanoma)?
Answer: 1580 nM

Question: What about the GI50 (NCI-H23 lung) of the same compound?
Answer: 246 nM

Question: And the TGI (NCI-H23 lung)?
Answer: 1910 nM

Question: What about the GI50 (U251 glioblastoma) of the same compound?
Answer: 2110 nM

Question: And the TGI (U251 glioblastoma)?
Answer: 8040 nM

Question: And the GI50 (NCI-H322M lung)?
Answer: 1230 nM

Question: What about the TGI (NCI-H322M lung) of the same compound?
Answer: 6800 nM

Question: And the GI50 (HOP-92 NSCLC)?
Answer: 1060 nM

Question: And the TGI (HOP-92 NSCLC)?
Answer: 2410 nM

Question: What about the GI50 (KM12 colon) of the same compound?
Answer: 414 nM

Question: What about the TGI (KM12 colon) of the same compound?
Answer: 3930 nM

Question: What about the GI50 (A549 NSCLC) of the same compound?
Answer: 1030 nM

Question: And the TGI (A549 NSCLC)?
Answer: 3840 nM

Question: And the GI50 (SNB-19 CNS)?
Answer: 1340 nM

Question: What about the TGI (SNB-19 CNS) of the same compound?
Answer: 5800 nM

Question: What about the GI50 (LOX IMVI melanoma) of the same compound?
Answer: 337 nM

Question: What about the TGI (LOX IMVI melanoma) of the same compound?
Answer: 1690 nM

Question: And the GI50 (NCI-H226 lung)?
Answer: 1180 nM

Question: And the TGI (NCI-H226 lung)?
Answer: 4320 nM

Question: What about the GI50 (SF-268 CNS) of the same compound?
Answer: 3180 nM

Question: What about the TGI (SF-268 CNS) of the same compound?
Answer: 14700 nM

Question: What about the GI50 (COLO 205 colon) of the same compound?
Answer: 56.6 nM

Question: And the TGI (COLO 205 colon)?
Answer: 1010 nM

Question: What about the GI50 (OVCAR-8 ovarian) of the same compound?
Answer: 1920 nM

Question: What about the TGI (OVCAR-8 ovarian) of the same compound?
Answer: 4820 nM

Question: And the GI50 (SF-295 CNS)?
Answer: 2250 nM

Question: And the TGI (SF-295 CNS)?
Answer: 6090 nM

Question: And the GI50 (SF-539 CNS)?
Answer: 1620 nM

Question: What about the TGI (SF-539 CNS) of the same compound?
Answer: 3610 nM

Question: And the GI50 (NCI/ADR-RES ovarian)?
Answer: 1740 nM

Question: And the TGI (NCI/ADR-RES ovarian)?
Answer: 3690 nM

Question: And the GI50 (SK-OV-3 ovarian)?
Answer: 3160 nM

Question: And the TGI (SK-OV-3 ovarian)?
Answer: 13300 nM

Question: And the GI50 (A498 renal)?
Answer: 1690 nM

Question: What about the TGI (A498 renal) of the same compound?
Answer: 12200 nM

Question: What about the GI50 (MOLT-4 leukemia) of the same compound?
Answer: 1650 nM

Question: And the TGI (MOLT-4 leukemia)?
Answer: 3020 nM

Question: What about the GI50 (SK-MEL-28 melanoma) of the same compound?
Answer: 35.2 nM

Question: What about the TGI (SK-MEL-28 melanoma) of the same compound?
Answer: 208 nM

Question: And the GI50 (OVCAR-5 ovarian)?
Answer: 304 nM

Question: And the TGI (OVCAR-5 ovarian)?
Answer: 2650 nM

Question: And the GI50 (OVCAR-3 ovarian)?
Answer: 1640 nM

Question: And the TGI (OVCAR-3 ovarian)?
Answer: 3320 nM

Question: What about the GI50 (UACC-257 melanoma) of the same compound?
Answer: 46 nM

Question: And the TGI (UACC-257 melanoma)?
Answer: 234 nM

Question: What about the GI50 (SR leukemia) of the same compound?
Answer: 1650 nM

Question: And the TGI (SR leukemia)?
Answer: 3260 nM

Question: And the GI50 (IGROV1 ovarian)?
Answer: 1080 nM

Question: And the TGI (IGROV1 ovarian)?
Answer: 2810 nM

Question: And the GI50 (MCF7 breast)?
Answer: 2900 nM

Question: And the TGI (MCF7 breast)?
Answer: 10700 nM

Question: And the GI50 (RXF 393 renal)?
Answer: 2110 nM

Question: And the TGI (RXF 393 renal)?
Answer: 11600 nM

Question: What about the GI50 (MDA-MB-231 breast) of the same compound?
Answer: 896 nM

Question: And the TGI (MDA-MB-231 breast)?
Answer: 2960 nM

Question: And the GI50 (HT29 colon)?
Answer: 279 nM

Question: What about the TGI (HT29 colon) of the same compound?
Answer: 10300 nM

Question: And the GI50 (K-562 leukemia)?
Answer: 1750 nM

Question: And the TGI (K-562 leukemia)?
Answer: 10700 nM

Question: What about the GI50 (SW-620 colon) of the same compound?
Answer: 105 nM

Question: And the TGI (SW-620 colon)?
Answer: 1870 nM

Question: What about the GI50 (MDA-MB-468 breast) of the same compound?
Answer: 1850 nM

Question: And the TGI (MDA-MB-468 breast)?
Answer: 3550 nM

Question: What about the GI50 (RPMI-8226 leukemia) of the same compound?
Answer: 277 nM

Question: And the TGI (RPMI-8226 leukemia)?
Answer: 1780 nM

Question: And the GI50 (HCC-2998 colon)?
Answer: 84.7 nM

Question: What about the TGI (HCC-2998 colon) of the same compound?
Answer: 540 nM

Question: What about the GI50 (HOP-62 NSCLC) of the same compound?
Answer: 868 nM

Question: What about the TGI (HOP-62 NSCLC) of the same compound?
Answer: 6430 nM

Question: What about the GI50 (NCI-H460 NSCLC) of the same compound?
Answer: 1380 nM

Question: What about the TGI (NCI-H460 NSCLC) of the same compound?
Answer: 11400 nM

Question: And the GI50 (PC-3 prostate)?
Answer: 3500 nM

Question: What about the TGI (PC-3 prostate) of the same compound?
Answer: 11800 nM

Question: And the GI50 (NCI-H522 lung)?
Answer: 1820 nM

Question: And the TGI (NCI-H522 lung)?
Answer: 4090 nM

— PubChem BioAssay (NCI)
